Experimental data: patent US8460644B2, “Synergistic mixed poloxamer systems for the solubilisation of drugs” (IS Pharmaceuticals Limited, priority 2001, dated 2013)
Read-outs that look alike come from different tables or passages of the source.

Tests used:
[1] = Maximum additive concentration (MAC) and degree of synergistic solubilisation in aqueous P407+P188 mixtures; type: physicochemical
Description: The maximum additive concentration (MAC) and degree of synergistic solubilisation was determined for a selection of water insoluble and sparingly soluble actives in aqueous P407+P188 mixtures.
For each active, the MAC was determined in the following aqueous poloxamer solutions:
As an aid to evaluating the level of synergistic solubilisation present within the system, the experimental data given in FIGS. 1-3 also includes the calculated MAC's of the systems that would be expected if the poloxamers comprising the mixture were solubilising independently and the overall MAC were simply the sum of the individual MAC's for the two components or admixture.

[2] = cited from earlier work
[3] = 3% w/v P407 + 7% w/v P188 in water
[4] = 7% w/v P407 + 3% w/v P188 in water

Row | Compound | synergistic ratio, MACexperimental/MACadmixture [1, 3] | synergistic ratio, MACexperimental/MACadmixture [1, 4] | incidence of pain on injection ([2]; formulated in a mixture of propylene glycol and water) [%] | incidence of pain on injection ([2]; formulated in an emulsion form) [%]
1 | Cc1ccc(C(C)C)cc1O [Carvacrol, 2-methyl-5-(1-methylethyl)phenol] | 2.1 | 1.8 | – | –
2 | CCCCCCCCCC(=O)OCCN1CCN(CCCN2c3ccccc3Sc3ccc(C(F)(F)F)cc32)CC1 [Fluphenazine decanoate, 2-{4-[3-(2-trifluoromethyl-phenothiazin-10-yl)propyl]piperazin-1-yl}ethyl decanoate] | 3.6 | 1.6 | – | –
3 | CCCCCCC(=O)OCCN1CCN(CCCN2c3ccccc3Sc3ccc(C(F)(F)F)cc32)CC1 [Fluphenazine enanthate, 2-{4-[3-(2-trifluoromethylphenothiazin-10-yl)propyl]piperazin-1-yl}ethyl heptanoate] | 2.5 | 1.8 | – | –
4 | CCN(CC)CC(=O)Nc1c(C)cccc1C [Lidocaine, 2-diethylamino-2′,6′-acetoxylidide] | 1.5 | 1.4 | – | –
5 | CN1C(=O)CN=C(c2ccccc2)c2cc(Cl)ccc21 [diazepam] | – | – | 37 | 0
